Among the data in patent US9283213B2, “Dihydropyridin-2(1H)-one compounds as S-nitrosoglutathione reductase inhibitors and neurokinin-3 receptor antagonists” (N30 Pharmaceuticals, Inc., priority 2010, dated 2016) are inhibition and IC50 values, retold here.

SMILES strings stand for the structures. pIC50: −log10 of the molar value. A value given as a limit tells only on which side of the number the result lay.

The target in experiment [1] is T1, human NK3 receptor (Homo sapiens, UniProt P29371).
T1 construct: expressed in transfected cells; host or cells: CHO cells
T1 sequence (P29371 1-465): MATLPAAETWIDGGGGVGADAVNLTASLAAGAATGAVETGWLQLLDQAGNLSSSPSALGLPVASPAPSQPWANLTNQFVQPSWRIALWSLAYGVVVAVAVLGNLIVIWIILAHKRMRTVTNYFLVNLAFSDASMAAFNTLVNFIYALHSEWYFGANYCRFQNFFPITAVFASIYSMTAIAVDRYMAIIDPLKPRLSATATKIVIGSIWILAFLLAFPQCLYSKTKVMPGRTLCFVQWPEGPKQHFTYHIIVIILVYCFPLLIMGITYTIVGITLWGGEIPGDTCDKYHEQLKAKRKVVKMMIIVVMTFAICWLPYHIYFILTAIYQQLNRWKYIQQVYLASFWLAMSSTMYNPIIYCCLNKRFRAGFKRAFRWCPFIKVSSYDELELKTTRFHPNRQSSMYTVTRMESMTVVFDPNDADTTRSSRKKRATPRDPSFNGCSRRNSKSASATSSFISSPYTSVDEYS
The experiment can be described thus: Human NK3 receptor binding assay at 1 uM. The following applies: 1 μM test compound; 0.4 nM [3H]SR142801; CHO cell membranes; read-out: percent inhibition at 1 μM, human NK3 receptor binding. The method, then:
Evaluation of the affinity of compounds for the human NK3 receptor from transfected CHO cells was performed using an antagonist radioligand binding assay. Antagonist activity was evaluated at a concentration of 1 μM for a representative subset of test compounds, and the results were expressed as the percent inhibition at that concentration.
Receptor binding assays were performed using crude membranes prepared from CHO cells expressing human NK3 receptor. Osanetant (SR142801), a non-peptide NK3 antagonist, was used as a ligand, and SB222200 was used as a positive control reference compound. […] The filters were rinsed several times with ice-cold 50 mM Tris/HCl using a 96-sample cell harvester (Unifilter, Packard), dried, and counted for radioactivity in a scintillation counter (Topcount, Packard) using a scintillation cocktail (Microscint 0, Packard). Each test compound was evaluated at a single concentration of 1 μM. […] Nonspecific binding was determined in the presence of 10 μM SB222200. […] The results are expressed as a percent of control specific binding ((measured specific binding/control specific binding)×100) obtained in the presence of the test compounds.

The next experiment addresses T2, GSNOR (Homo sapiens, UniProt P11766).
T2 construct: made in house; host or cells: E. coli
Briefly: GSNOR assay (inhibition of GSNOR activity in vitro). It counts as biochemical. The following applies: 0.240 mM GSNO, 0.300 mM NADH, pH 7.4, 25° C.; read-out: GSNOR inhibitor IC50. On the procedure:
Various compounds were tested in vitro for their ability to inhibit GSNOR activity.
Pre-cultures were grown from stabs of a GSNOR glycerol stock in 2XYT media containing 100 ug/ml ampicillin after an overnight incubation at 37° C. Cells were then added to fresh 2XYT (4 L) containing ampicillin and grown to an OD (A600) of 0.6-0.9 at 37° C. before induction. GSNOR expression was induced with 0.1% arabinose in an overnight incubation at 20° C.
E. coli cell paste was lysed by nitrogen cavitation and the clarified lysate purified by Ni affinity chromatography on an AKTA FPLC (Amersham Pharmacia). The column was eluted in 20 mM Tris pH 8.0/250 mM NaCl with a 0-500 mM imidazole gradient. […] GSNOR was recovered in the flowthrough fraction and for crystallography is further purified by Q-Sepharose and Heparin flowthrough chromatography in 20 mM Tris pH 8.0, 1 mM DTT, 10 uM ZnSO4.
GSNO and Enzyme/NADH Solutions are made up fresh each day. The Solutions are filtered and allowed to warm to room temperature. GSNO Solution: 100 mM NaPO4 (pH 7.4), 0.480 mM GSNO. 396 μL of GSNO Solution is added to a cuvette followed by 8 μL of test compound in DMSO (or DMSO only for full reaction control) and mixed with the pipette tip. Compounds to be tested are made up at a stock concentration of 10 mM in 100% DMSO. 2 fold serial dilutions are done in 100% DMSO. 8 μL of each dilution are added to an assay so that the final concentration of DMSO in the assay is 1%. The concentrations of compounds tested range from 100 to 0.003 μM. Enzyme/NADH Solution: 100 mM NaPO4 (pH 7.4), 0.600 mM NADH, 1.0 μg/mL GSNO Reductase. 396 μL of the Enzyme/NADH Solution is added to the cuvette to start the reaction. The cuvette is placed in the Cary 3E UV/Visible Spectrophotometer and the change in 340 nm absorbance/min at 25° C. is recorded for 3 minutes. The assays are done in triplicate for each compound concentration. IC50's for each compound are calculated using the standard curve analysis in the Enzyme Kinetics Module of SigmaPlot.
Final assay conditions: 100 mM NaPO4, pH 7.4, 0.240 mM GSNO, 0.300 mM NADH, 0.5 μg/mL GSNO Reductase and 1% DMSO. Final volume: 800 μL/cuvette.

The target in experiment [2] is T1, human NK3 receptor. The experiment can be described thus: Human NK3 receptor binding assay at 10 μM. The following applies: 10 μM test compound; 0.4 nM [3H]SR142801; CHO cell membranes; read-out: percent inhibition at 10 μM, human NK3 receptor binding. On the procedure:
Evaluation of the affinity of test compounds for the human neurokinin NK3 receptor from transfected CHO cells was performed using an antagonist radioligand binding assay. Antagonist activity was evaluated at a concentration of 10 μM for a representative subset of test compounds, and the results were expressed as the percent inhibition at that concentration.
Receptor binding assays were performed using crude membranes prepared from CHO cells expressing human NK3 receptor. Osanetant (SR142801), a non-peptide NK3 antagonist, was used as a ligand, and SB222200 was used as a positive control reference compound. The assay was performed with cell membrane homogenates (24 μg protein) incubated for 120 min at 22° C. with 0.4 nM [^3H]SR142801 in the absence or presence of the test compound in a buffer containing 20 mM Hepes/NaOH (pH 7.4), 120 mM NaCl, 1 mM MnCl2, 0.01% bacitracin, 0.002% aprotinin and 0.1% BSA. Following incubation, the samples were filtered rapidly under vacuum through glass fiber filters (GF/B, Packard) that had been presoaked with 0.3% PEI. The filters were rinsed several times with ice-cold 50 mM Tris/HCl using a 96-sample cell harvester (Unifilter, Packard), dried, and counted for radioactivity in a scintillation counter (Topcount, Packard) using a scintillation cocktail (Microscint 0, Packard). Each test compound was evaluated at a single concentration of 10 μM. The standard reference compound, SB222200, was tested in each experiment. Nonspecific binding was determined in the presence of 10 μM SB222200. The specific ligand binding to the receptor is defined as the difference between the total binding and the nonspecific binding. The results are expressed as a percent of control specific binding ((measured specific binding/control specific binding)×100) obtained in the presence of the test compounds.

In experiment [3] the target is T1, human NK3 receptor. The experiment can be described thus: Human NK3 receptor binding assay determined by IC50. The following applies: 0.4 nM [3H]SR142801; CHO cell membranes. On the procedure: Evaluation of the affinity of compounds for the human NK3 receptor from transfected CHO cells was performed using an antagonist radioligand binding assay. The antagonist activity of a representative subset of test compounds was evaluated over a range of concentrations, and the results were expressed as IC50 values.
Receptor binding assays were performed using crude membranes prepared from CHO cells expressing human NK3 receptor. Osanetant (SR142801), a non-peptide NK3 antagonist, was used as a ligand, and SB222200 was used as a positive control reference compound. […] The filters were rinsed several times with ice-cold 50 mM Tris/HCl using a 96-sample cell harvester (Unifilter, Packard), dried, and counted for radioactivity in a scintillation counter (Topcount, Packard) using a scintillation cocktail (Microscint 0, Packard). […] Nonspecific binding was determined in the presence of 10 μM SB222200. […] The IC50 values (concentration causing a half-maximal inhibition of control specific binding) and Hill coefficients (nH) were determined by non-linear regression analysis of the competition curves generated with mean replicate values using Hill equation curve fitting (Y=D+[(A−D)/(1+(C/C50)^nH)], where Y=specific binding, D=minimum specific binding, A=maximum specific binding, C=compound concentration, C50=IC50, and nH=slope factor). […]

T2 sequence (P11766 whole entry): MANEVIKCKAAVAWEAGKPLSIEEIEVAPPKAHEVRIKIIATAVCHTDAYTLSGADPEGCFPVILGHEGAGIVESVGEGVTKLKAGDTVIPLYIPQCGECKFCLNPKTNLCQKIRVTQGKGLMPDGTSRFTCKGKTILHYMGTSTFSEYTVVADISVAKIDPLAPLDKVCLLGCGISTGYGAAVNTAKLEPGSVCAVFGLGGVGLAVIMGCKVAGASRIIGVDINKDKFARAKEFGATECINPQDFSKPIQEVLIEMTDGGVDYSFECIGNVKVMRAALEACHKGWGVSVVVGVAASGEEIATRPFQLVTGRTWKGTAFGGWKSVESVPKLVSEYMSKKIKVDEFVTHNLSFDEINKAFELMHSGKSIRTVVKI

What is called inhibition is the share of the control response that was lost under treatment. On to `CCOc1cc(C2CC(=O)N(C)C(c3ccccc3)=C2c2ccccc2)cc([N+](=O)[O-])c1O` (stereo not shown) [Example 16, 4-(3-ethoxy-4-hydroxy-5-nitrophenyl)-1-methyl-5,6-diphenyl-3,4-dihydropyridin-2(1H)-one], for which the inhibition at 1 µM at human NK3 receptor [1] is over 50%.
As usually defined, the pIC50 is −log10 of the IC50, conventionally taken in molar units. For `CCOc1cc(C2CC(=O)NC(c3cnn(C)c3)=C2c2ccsc2)cc([N+](=O)[O-])c1O` (stereo not shown) [Example 4, 4-(3-ethoxy-4-hydroxy-5-nitrophenyl)-6-(1-methyl-1H-pyrazol-4-yl)-5-(thiophen-3-yl)-3,4-dihydropyridin-2(1H)-one], the pIC50 at GSNOR is over 7.00. Further, the inhibition at 10 µM on human NK3 receptor [2] is over 50%.
Regarding `O=C1CC(c2ccc(C(=O)O)c(O)c2)C(c2ccsc2)=C(c2ccccc2)N1` (stereo not shown) [Example 7, 2-hydroxy-4-(2-oxo-6-phenyl-5-(thiophen-3-yl)-1,2,3,4-tetrahydropyridin-4-yl)benzoic acid], the pIC50 on GSNOR was over 7.00.
On the same count and under the same terms, in the case of `Cn1cc(C2=C(c3ccsc3)C(c3ccc(C(=O)O)c(O)c3)CC(=O)N2)cn1` (stereo not shown) [Example 9, 2-hydroxy-4-(6-(1-methyl-1H-pyrazol-4-yl)-2-oxo-5-(thiophen-3-yl)-1,2,3,4-tetrahydropyridin-4-yl)benzoic acid] it was over 7.00.
On to `CCOc1cc(C2CC(=O)NC(c3ccccc3)=C2c2ccccc2)cc([N+](=O)[O-])c1O` (stereo not shown) [Example 1, 4-(3-ethoxy-4-hydroxy-5-nitrophenyl)-5,6-diphenyl-3,4-dihydropyridin-2(1H)-one], for which the figures for the pIC50 on GSNOR and on human NK3 receptor [3] were over 7.00 and about 5.96, respectively. Further, the inhibition at 10 µM at human NK3 receptor [2] is over 50%.
`Cn1cc(C2=C(c3cccs3)C(c3cc(O)c(C(=O)O)c(F)c3)CC(=O)N2)cn1` (stereo not shown) [Example 17, 2-fluoro-6-hydroxy-4-(6-(1-methyl-1H-pyrazol-4-yl)-2-oxo-5-(thiophen-2-yl)-1,2,3,4-tetrahydropyridin-4-yl)benzoic acid]: the negative-log IC50 (pIC50) on GSNOR is over 7.00.
`CCOc1cc(C2CC(=O)NC(c3cccnc3)=C2c2ccsc2)cc([N+](=O)[O-])c1O` (stereo not shown) [Example 2, 4-(3-ethoxy-4-hydroxy-5-nitrophenyl)-6-(pyridin-3-yl)-5-(thiophen-3-yl)-3,4-dihydropyridin-2(1H)-one]: the pIC50 on GSNOR is over 7.00. For the same compound, the inhibition at 10 µM on human NK3 receptor [2] is over 50%.
`O=C1CC(c2cc(OCCO)c(O)c([N+](=O)[O-])c2)C(c2ccccc2)=C(c2ccccc2)N1` (stereo not shown) [Example 14, 4-(4-hydroxy-3-(2-hydroxyethoxy)-5-nitrophenyl)-5,6-diphenyl-3,4-dihydropyridin-2(1H)-one]: the negative logarithm of the IC50 (pIC50) on GSNOR was over 7.00. Besides, at human NK3 receptor [1], the inhibition at 1 µM was over 50%.
